Some test systems named below: BT-549 breast; COLO 205 colon; DU-145 prostate; HS 578T breast; M14 melanoma; NCI-H23 lung; NCI-H460 lung; SK-MEL-5 melanoma; SR leukemia; UACC-62 melanoma.
Assay in all cases: inhibition of tumour cell growth, NCI panel, 48 h

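Growth conditions: 96-well plates. Treatment: test compound, 48 hours, 5 concentrations. Analysis: linear interpolation between bracketing concentrations; unreached endpoints set to highest concentration. Abbreviation: GI50, concentration required for 50% inhibition of growth. Definition used: TGI = concentration required for complete inhibition of growth.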

We go through 7 molecules from PubChem BioAssay (NCI).

In the case of `CS(=O)(=O)c1ccc(C(F)(F)F)cc1NC(=O)Nc1cnc(Oc2ccc(-c3cc(Cl)cnc3N)cc2)nc1`, the GI50 is 2260 nM in the test with BT-549 breast; 1980 nM in the test with COLO 205 colon; 3.21 µM in the test on DU-145 prostate; 2080 nM with HS 578T breast; 2020 nM in the test with M14 melanoma; 2560 nM in the test on NCI-H23 lung. For the same molecule, the GI50 is 2070 nM with NCI-H460 lung, 1870 nM in the test with SK-MEL-5 melanoma, 1980 nM with SR leukemia and 1820 nM in the test with UACC-62 melanoma. Further, the TGI in the test with BT-549 breast is 6.5 µM; with COLO 205 colon it was 4.77 µM; in the test on DU-145 prostate, over 54.2 µM; in the test on HS 578T breast, 8.44 µM; in the test on M14 melanoma, 4.8 µM; with NCI-H23 lung, 7.69 µM. The TGI in the test with NCI-H460 lung is 4.42 µM; in the test on SK-MEL-5 melanoma, 3.87 µM; in the test with SR leukemia, 4.66 µM; in the test on UACC-62 melanoma, 4.72 µM.

Turning to `NC(C(=O)O)C(N)C(=O)O` (stereo not given), the TGI in the test on BT-549 breast, with COLO 205 colon, in the test on DU-145 prostate, in the test with HS 578T breast, in the test with M14 melanoma and with NCI-H23 lung was over 100 µM throughout. Besides, the TGI in the test with NCI-H460 lung, in the test with SK-MEL-5 melanoma, in the test on SR leukemia and in the test with UACC-62 melanoma was over 100 µM throughout.

As for `N#Cc1ccc(-n2cnc(NC(=O)[C@H]3CCN(C#N)C3)c2)cc1`, the GI50 with BT-549 breast was 248 nM; in the test on COLO 205 colon it was 372 nM; in the test with DU-145 prostate it was 1.52 µM; in the test with HS 578T breast it was 1900 nM; in the test with M14 melanoma, 757 nM; in the test on NCI-H23 lung, 1780 nM. Also, the GI50 was 2350 nM with NCI-H460 lung, 2080 nM in the test on SK-MEL-5 melanoma, 375 nM in the test on SR leukemia and 892 nM in the test on UACC-62 melanoma. The TGI was 2.47 µM with BT-549 breast; 1.93 µM in the test on COLO 205 colon; 49.4 µM in the test on DU-145 prostate; 13.6 µM in the test on HS 578T breast; 6.28 µM in the test on M14 melanoma; 12.6 µM with NCI-H23 lung. The TGI in the test on NCI-H460 lung is over 34.7 µM; with SK-MEL-5 melanoma it was 6.13 µM; with SR leukemia, over 100 µM; in the test on UACC-62 melanoma it was 4.47 µM.

On to `Cc1cc(N2CCN(C)CC2)nc(NC2CCCC(Nc3ccnc4cc(Cl)ccc34)C2)n1` (stereo not given), for which the GI50 in the test with BT-549 breast is 2080 nM; with COLO 205 colon it was 1680 nM; with DU-145 prostate it was 3.05 µM; with HS 578T breast, 2170 nM; in the test with M14 melanoma, 1700 nM; in the test on NCI-H23 lung, 4190 nM. The GI50 in the test on NCI-H460 lung was 2160 nM; in the test on SK-MEL-5 melanoma, 1760 nM; with SR leukemia it was 643 nM; with UACC-62 melanoma it was 1800 nM. Also, the TGI in the test with BT-549 breast turned out to be 5.76 µM; in the test with COLO 205 colon it was 3.45 µM; in the test with DU-145 prostate, 12.7 µM; in the test on HS 578T breast it was 6.41 µM; in the test on M14 melanoma it was 3.46 µM; in the test with NCI-H23 lung it was 17.7 µM. The TGI in the test with NCI-H460 lung was determined as 5.07 µM; in the test with SK-MEL-5 melanoma, 3.17 µM; in the test on SR leukemia, 5.23 µM; with UACC-62 melanoma it was 3.54 µM.

`CCOC(=O)c1cc(C(=O)c2cc(OC)cc(OC)c2)n2ncccc12`: the GI50 with BT-549 breast was 1220 nM; in the test on COLO 205 colon, 797 nM; in the test with DU-145 prostate it was 3.96 µM; in the test with HS 578T breast it was 1990 nM; in the test on M14 melanoma it was 394 nM; in the test on NCI-H23 lung, 4900 nM. The GI50 was 2580 nM with NCI-H460 lung, 508 nM with SK-MEL-5 melanoma, 573 nM with SR leukemia and 523 nM in the test with UACC-62 melanoma. Further, the TGI was over 100 µM in the test on BT-549 breast; 75.5 µM with COLO 205 colon; over 100 µM in the test on DU-145 prostate; over 100 µM in the test on HS 578T breast; over 100 µM with M14 melanoma; over 100 µM with NCI-H23 lung. Moreover, the TGI with NCI-H460 lung, in the test on SK-MEL-5 melanoma, in the test with SR leukemia and with UACC-62 melanoma was over 100 µM each time.

With `COC(=O)c1c2c(c(C)[n+]([O-])c1C)C(=O)C(NCc1ccc(F)c(Cl)c1)=CC2=O`, the GI50 in the test with BT-549 breast is 1880 nM; in the test on COLO 205 colon, 588 nM; in the test on DU-145 prostate it was 2.44 µM; in the test on HS 578T breast, 3220 nM; with M14 melanoma it was 1410 nM; in the test with NCI-H23 lung, 1740 nM. Further, the GI50 in the test on NCI-H460 lung was 1510 nM; with SK-MEL-5 melanoma it was 426 nM; in the test on SR leukemia, 2500 nM; in the test on UACC-62 melanoma, 1380 nM. For the same molecule, the TGI was 5.81 µM in the test on BT-549 breast; 2.29 µM in the test with COLO 205 colon; 7.89 µM in the test on DU-145 prostate; 21.5 µM in the test on HS 578T breast; 3.12 µM in the test on M14 melanoma; 4.77 µM in the test on NCI-H23 lung. Moreover, the TGI was 9.09 µM in the test on NCI-H460 lung, 1.57 µM in the test with SK-MEL-5 melanoma, over 100 µM in the test with SR leukemia and 3.12 µM in the test with UACC-62 melanoma.

With `O=C1/C(=C\c2ccccc2)c2ccccc2N1Cc1ccccc1`, the TGI with BT-549 breast turned out to be 14.2 µM; in the test with COLO 205 colon, 33.3 µM; with DU-145 prostate it was 17 µM; with HS 578T breast, 20.9 µM; in the test with M14 melanoma, 23.9 µM; in the test with NCI-H23 lung it was 16.8 µM. In addition, the TGI in the test with NCI-H460 lung came to 19 µM; with SK-MEL-5 melanoma it was 15.8 µM; with SR leukemia it was 9.66 µM; in the test with UACC-62 melanoma it was 14.3 µM.
